Laboratory results taken from patent US8119819B2 (Chugai Seiyaku Kabushiki Kaisha, priority 2001, dated 2012).

system: human breast cancer cells; assay: not given; conditions: breast carcinoma cells; cited from earlier work

SMILES	malonyl-CoA level
CCCCCCCCCCCCCCOc1ccc(C(=O)O)o1 [TOFA, 5-(tetradecyloxy)-2-furoic acid]	60 % of the control

same assay, conditions: human breast cancer cells and xenografts; cited from earlier work

SMILES	antitumor activity
CCCCCCCCCCCCCCOc1ccc(C(=O)O)o1 [TOFA, 5-(tetradecyloxy)-2-furoic acid]	does not show any antitumor activity

biological target: T1, malonyl-CoA decarboxylase prepared from rat heart (Rattus norvegicus, UniProt Q920F5); assay: In Vitro MCD inhibitory assay (spectrophotometric, 96 well); assay type: biochemical; conditions: read-out: IC50 of the MCD inhibitors
T1 construct: malonyl-CoA decarboxylase prepared from rat heart; from tissue; host or cells: rat heart
T1 sequence (Q920F5 39-492): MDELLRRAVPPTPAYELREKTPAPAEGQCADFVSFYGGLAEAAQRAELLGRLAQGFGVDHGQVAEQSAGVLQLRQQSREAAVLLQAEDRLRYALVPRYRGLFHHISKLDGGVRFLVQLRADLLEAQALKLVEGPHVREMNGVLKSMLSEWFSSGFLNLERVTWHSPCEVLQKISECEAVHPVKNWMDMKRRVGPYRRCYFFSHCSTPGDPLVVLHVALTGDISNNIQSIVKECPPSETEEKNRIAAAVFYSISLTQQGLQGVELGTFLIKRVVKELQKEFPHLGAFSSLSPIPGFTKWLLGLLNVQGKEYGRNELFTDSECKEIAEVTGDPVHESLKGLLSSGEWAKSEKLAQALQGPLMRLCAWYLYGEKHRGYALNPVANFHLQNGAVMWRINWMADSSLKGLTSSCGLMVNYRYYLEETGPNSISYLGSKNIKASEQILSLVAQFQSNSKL
Method: The following reagents are added into a 96 well titer plate: Tris-HCl buffer, 20 μL; DTE, 10 μL; 1-malate, 20 μL; NAD, 10 μL; NADH, 25 μL; water, 80 μL; malic dehydrogenase, 5 μL. The contents are mixed and incubated for 2 min followed by the addition of 5 μL of citrate synthase.

IC50 [nM]	SMILES
127	CC(C)N(C(=O)C1=NOC(C(O)(C(F)(F)F)C(F)(F)F)C1)C(C)C (stereo not drawn) [Example 8-3-3]
3710	OC(C1CC(N2CCCC2)=NO1)(C(F)(F)F)C(F)(F)F (stereo not drawn) [Example 9-2, 1,1,1,3,3,3-hexafluoro-2-(3-pyrrolidin-1-4,5-dihydroisoxazol-5-yl)propan-2-ol]
388	Cc1ccc(C2=NOC(C(O)(C(F)(F)F)C(F)(F)F)C2)cc1 (stereo not drawn) [Example 11-1, 1,1,1,3,3,3-hexafluoro-2-[3-(4-methylphenyl)-4,5-dihydroisoxazol-5-yl]propan-2-ol]

Second part, the compound before the results:

SMILES	IC50 [nM]
CCCCN(C(=O)NCC)c1ncc(C(O)(C(F)(F)F)C(F)(F)F)s1 [Example 1-3-1, N-butyl-N′-ethyl-N-{5-[2,2,2-trifluoro-1-hydroxy-1-(trifluoromethyl)ethyl]-1,3-thiazol-2-yl}urea]	213
O=CN(Cc1ccncc1)c1ncc(C(O)(C(F)(F)F)C(F)(F)F)s1 [Example 1-4, pyridin-4-yl methyl {5-[2,2,2-trifluoro-1-hydroxy-1-(trifluoromethyl)ethyl]-1,3-thiazol-2-yl}formamide]	463
O=S(=O)(Nc1ncc(C(O)(C(F)(F)F)C(F)(F)F)s1)c1ccc(Cl)cc1 [Example 3, 4-chloro-N-{5-[2,2,2,-trifluoro-1-hydroxy-1-(trifluoromethyl)ethyl]-1,3-thiazol-2-yl}benzenesulfonamide]	124
CN(CC#CC(O)(C(F)(F)F)C(F)(F)F)C(=O)CCc1ccccc1 [Example 7-1, N-methyl-3-phenyl-N-[5,5,5-trifluoro-4-hydroxy-4-(trifluoromethyl)pent-2-ynyl]propanamide]	739
